The record followed here is ChEMBL document CHEMBL2375347, “Discovery of adamantane based highly potent HDAC inhibitors” (Bioorg Med Chem Lett, 2013).

Series [1] is described as follows: Inhibition of mouse liver HDAC by fluorescence assay.
Series [2] deals with HCT-116. Put plainly: Cytotoxicity against human HCT116 cells by MTT assay. In kind it is functional.
Series [3] concerns NCI-H460. The series can be described thus: Cytotoxicity against human NCI-H460 cells by MTT assay. It is filed as functional. Background: Formazan colour is commonly taken as a measure of viable cells.
The test system of series [4] is U-251. The series can be described thus: Cytotoxicity against human U251 cells by MTT assay. In kind it is functional.
Series [5] concerns Mus musculus. The series can be described thus: Toxicity in SCID mouse xenografted with human NCI-H460 cells assessed as loss in body weight at 5 mg/kg, ip qd for 21 days relative to control. In kind it is organism-based. Also noted: dose 5 mg/kg, route intraperitoneal. Particulars: in vivo, 504 h.
The subject of series [6] is NCI-H460. Put plainly: Antitumor activity against human NCI-H460 cells xenografted in SCID mouse assessed as tumor growth inhibition at 5 mg/kg, ip qd for 21 days. In kind it is functional. The note with it: 504 h, route intraperitoneal, read-out: TGI. (Xenograft models place foreign cells or tissue in a host animal.)
A short description of series [7]: Toxicity in SCID mouse xenografted with human NCI-H460 cells. In kind it is organism-based. The note with it: in vivo.

`O=C(/C=C/c1ccc(CNC23CC4CC(CC(Cl)(C4)C2)C3)cc1)NO`: half-maximal inhibition in series [1] (IC50) required 40 nM. The 50% growth inhibitory concentration (GI50) in series [2] came out at 11000 nM; in series [3], 4000 nM; in series [4], 14000 nM.

On to `O=C(/C=C/c1ccc(CNC(=O)C23CC4CC(CC(C4)C2)C3)cc1)NO`, for which the midpoint of inhibition in series [1], the IC50, lay at 67 nM. Moreover, the values for the GI50 in series [2], in series [3] and in series [4] were 100 nM, 100 nM and 170 nM, respectively.

In turn, `O=C(/C=C/c1ccc(CNCC23CC4CC(CC(C4)C2)C3)cc1)NO` showed an IC50 in series [1] of 1.1 nM. For the same compound, the concentration for 50% growth inhibition (GI50) in series [2] is 500 nM; in series [3], 300 nM; in series [4], 800 nM.

In series [1], `O=C(/C=C/c1ccc(CNC(=O)C23CC4CC(CC(F)(C4)C2)C3)cc1)NO` yielded an IC50 of 77 nM. Moreover, the figures for the 50% growth inhibitory concentration (GI50) in series [2], in series [3] and in series [4] were 500 nM, 500 nM and 1900 nM, respectively.

In series [1], `O=C(/C=C/c1ccc(CNCC23CC4CC(CC(F)(C4)C2)C3)cc1)NO` came in with a 50% inhibitory concentration (IC50) of 6 nM. Also, the GI50 in series [2] was 30 nM; in series [3], 30 nM; in series [4], 180 nM.

Compound `O=C(/C=C/c1ccc(CNC(=O)CC23CC4CC(CC(C4)C2)C3)cc1)NO` gave an IC50 in series [1] of 1.8 nM. Also, the concentration for 50% growth inhibition (GI50) in series [2] came to 1100 nM; in series [3] it was 1300 nM; in series [4] it was 1600 nM.

Take `O=C(/C=C/c1ccc(CNCCC23CC4CC(CC(C4)C2)C3)cc1)NO`: the IC50 in series [1] worked out at 0.9 nM. Further, the 50% growth inhibitory concentration (GI50) came out at 450 nM in series [2], 1100 nM in series [3] and 1300 nM in series [4].

In turn, `O=C(/C=C/c1ccc(CNC2C3CC4CC(C3)CC2C4)cc1)NO` (stereo unspecified) had a half-maximal inhibitory concentration (IC50) in series [1] of 60 nM. Moreover, the GI50 in series [2] came to 80 nM; in series [3], 70 nM; in series [4] it was 170 nM.

In series [1], `O=C(/C=C/c1ccc(CNC(=O)CC2C3CC4CC(C3)CC2C4)cc1)NO` (stereo unspecified) registered an IC50 of 8 nM. For the same compound, the figures for the GI50 in series [2], in series [3] and in series [4] were 500 nM, 400 nM and 260 nM, respectively.

In series [1], `O=C(/C=C/c1ccc(CNCCC2C3CC4CC(C3)CC2C4)cc1)NO` (stereo unspecified) returned an IC50 of 0.28 nM. Moreover, the GI50 was found to be 60 nM in series [2], 10 nM in series [3] and 50 nM in series [4].

Take `O=C(/C=C/c1ccc(CN2CC3CC4CC(C3)CC2C4)cc1)NO`: the concentration for half-maximal inhibition (IC50) in series [1] came to 110 nM. The GI50 was determined as 1800 nM in series [2], 4900 nM in series [3] and 1700 nM in series [4].

In series [1], `O=C(/C=C/c1ccc(CNC(=O)C23CC4CC(CC2C4)C3)cc1)NO` returned an IC50 of 25 nM. For the same compound, the results for the 50% growth inhibitory concentration (GI50) in series [2], in series [3] and in series [4] were 380 nM, 350 nM and 600 nM, respectively.

For the compound `O=C(/C=C/c1ccc(CNCC23CC4CC(CC2C4)C3)cc1)NO`, the Activity in series [5] is reported as below 10%. The IC50 in series [1] amounted to 0.02 nM. Besides, the concentration for 50% growth inhibition (GI50) worked out at 10 nM in series [2], 10 nM in series [3] and 30 nM in series [4]. Also, the inhibition in vivo at 5 mg/kg in series [6] was found to be 45%. Besides, the MTD in series [7] stood at 7.5 mg/kg.

Turning to `CC(NCc1ccc(/C=C/C(=O)NO)cc1)C12CC3CC(CC1C3)C2` (stereo unspecified), 0.03 nM corresponded to half-maximal inhibition in series [1] (IC50). Moreover, the results for the GI50 in series [2], in series [3] and in series [4] were 30 nM, 30 nM and 50 nM, respectively.

In series [1], `O=C(/C=C/c1ccc(CNC23CC4CC(CC(C4)C2)C3)cc1)NO` gave a 50% inhibitory concentration (IC50) of 70 nM. The GI50 came out at 500 nM in series [2], 2800 nM in series [3] and 2700 nM in series [4].

Regarding `CCOC12CC3CC(CC(NCc4ccc(/C=C/C(=O)NO)cc4)(C3)C1)C2`, the IC50 in series [1] was determined as 460 nM. Further, the results for the 50% growth inhibitory concentration (GI50) in series [2], in series [3] and in series [4] were 1000 nM, 6000 nM and 2800 nM, respectively.

In series [1], `COC12CC3CC(CC(NCc4ccc(/C=C/C(=O)NO)cc4)(C3)C1)C2` showed an IC50 of 260 nM. Also, the 50% growth inhibitory concentration (GI50) in series [2] was 1600 nM; in series [3] it was 7000 nM; in series [4], 7000 nM.

For the compound `O=C(/C=C/c1ccc(CNC23CC4CC(CC(O)(C4)C2)C3)cc1)NO`, the IC50 in series [1] is 250 nM. Further, the GI50 was found to be 3000 nM in series [2], 8000 nM in series [3] and 4200 nM in series [4].

The compound `O=C(/C=C/c1ccc(CNC23CC4CC(CC(CO)(C4)C2)C3)cc1)NO` came in with an IC50 in series [1] of 240 nM. Moreover, the concentration for 50% growth inhibition (GI50) was determined as 2800 nM in series [2], 9500 nM in series [3] and 6000 nM in series [4].

Consider `O=C(/C=C/c1ccc(CNC23CC4CC(C2)CC(c2ccccc2)(C4)C3)cc1)NO`, for which the IC50 in series [1] came out at 440 nM. In addition, the results for the GI50 in series [2], in series [3] and in series [4] were 2200 nM, 5000 nM and 3200 nM, respectively.

`O=C(CCCCCCC(=O)Nc1ccccc1)NO` [VORINOSTAT]: the 50% growth inhibitory concentration (GI50) in series [2] was 1000 nM; in series [3], 1000 nM; in series [4] it was 2000 nM.

Broadly, the IC50 is the concentration that inhibits the measured activity by half. Read a high IC50 as weaker potency. The term GI50 denotes the concentration at which growth is held to half of that of the control. High values mean less potent growth inhibition, low ones more potent growth inhibition.
